The source of these data is publication PMC7731220, “Pharmacophore Modeling and 3D-QSAR Study of Indole and Isatin Derivatives as Antiamyloidogenic Agents Targeting Alzheimer’s Disease” (Molecules, 2020).

The IC50 is the midpoint of a concentration-inhibition curve. The inhibition is the relative decrease from the control value, in per cent.

T1 sequence (P05067 672-711 limits assumed): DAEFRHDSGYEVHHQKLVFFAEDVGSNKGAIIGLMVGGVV

The first test has as its target T1, Aβ40 (Homo sapiens, UniProt P05067). Kind of test: Inhibition of Aβ40 self-aggregation (thioflavin T fluorescence, 2% HFIP).
Conditions: not given
In turn, `COc1ccc2[nH]cc(C=NNc3cccc(Cl)c3)c2c1` [Compound 31, 3-((2-(3-Chlorophenyl)hydrazineylidene)methyl)-5-methoxy-1H-indole] came in with an IC50 of 9.2 ± 0.7 µM. `Clc1cccc(N/N=C/c2c[nH]c3ccccc23)c1` [Compound 30] gave an IC50 of 13 ± 2 µM. Same read-out and setting: in the case of `Clc1c(C=NNc2ccccc2)[nH]c2ccc(Br)cc12` [Compound 40, 5-Bromo-3-chloro-2-((2-phenylhydrazineylidene)methyl)-1H-indole] it was 25 ± 3 µM.

With `COc1ccc2[nH]cc(C=NNc3ccnc4cc(Cl)ccc34)c2c1` [Compound 36, 7-Chloro-4-(2-((5-methoxy-1H-indol-3-yl)methylene)hydrazineyl)quinoline], 13 ± 1 µM corresponded to half-maximal inhibition (IC50).

Staying with this test, now noted: read-out: Aβ40 Aggregation Inhibition % at 100 μM.
Regarding `CC1(C)OC(=O)C(C=C2Nc3ccccc3C2=O)C(=O)O1` [Compound 44], the inhibition at 100 µM is 44 ± 1%.

Consider `COc1ccc2[nH]cc(C=NNc3ccccn3)c2c1` [Compound 34, 5-Methoxy-3-((2-(pyridin-2-yl)hydrazineylidene)methyl)-1H-indole], for which the inhibition at 100 µM is 20 ± 2%. Turning to `COc1ccc2c(c1)C(=O)C(=O)N2Cc1ccccc1` [Compound 10], the inhibition at 100 µM stood at 52 ± 1%. As to `CC(C)c1ccc(NN=C2C(=O)N(C3CC3)c3ccc(O)cc32)cc1` [Compound 20, 1-Cyclopropyl-5-hydroxy-3-(2-(4-isopropylphenyl)hydrazono)indolin-2-one], the inhibition at 100 µM worked out at 26 ± 3%. For `O=C1Nc2ccccc2C1=NNc1cccc2cccnc12` [Compound 25, 3-(2-(Quinolin-8-yl)hydrazineylidene)indolin-2-one], the inhibition at 100 µM was determined as 63 ± 5%. For the compound `COc1ccc2[nH]cc(C=NNc3ccc(C#N)cc3)c2c1` [Compound 29, 4-(2-((5-Methoxy-1H-indol-3-yl)methylene)hydrazineyl)benzonitrile], the inhibition at 100 µM was determined as 56 ± 1%.

A further test has as its target T1, Aβ40.
Experiment: not given
The note with it: supplement, training set; 100 µM; cited from earlier work.
For the compound `O=C1C(/C=N/Nc2ccc(Cl)cc2)=Nc2ccccc21` [Compound S13], the “% inhib. @ 100 µM” value is on record as 33±1.0%. Take `O=C1Nc2ccccc2/C1=N/Nc1ccc(Cl)cc1` [Compound S61]: the “% inhib. @ 100 µM” value is listed as 24±4.9%. Regarding `COc1ccc2c(c1)/C(=N/Nc1ccc(Cl)cc1)C(=O)N2` [Compound S27], the “% inhib. @ 100 µM” value is listed as 43±2%. For `O=C1Nc2ccc(Br)cc2/C1=N/Nc1ccc(Cl)cc1` [Compound S44], the “% inhib. @ 100 µM” value was 63±4%.

With `O=C1Nc2ccccc2/C1=N/Nc1cccc([N+](=O)[O-])c1` [Compound S63], the “% inhib. @ 100 µM” value is reported as 29±1.2%.

Regarding `O=C1Nc2ccc(O)cc2/C1=N/Nc1ccc(O)cc1` [Compound S50], the “% inhib. @ 100 µM” value is 61±2%. In the case of `O=C1Nc2ccc(O)cc2/C1=N/Nc1ccccc1` [Compound S47], the “% inhib. @ 100 µM” value is 62±3%. Regarding `COc1ccc2c(c1)/C(=N/Nc1cccc(C(C)(C)C)c1)C(=O)N2` [Compound S32], the “% inhib. @ 100 µM” value is 56±2%. As to `O=C1Nc2ccccc2/C1=N/Nc1cccc(Cl)c1` [Compound S60], the “% inhib. @ 100 µM” value is 39±5%. Regarding `O=C1Nc2cc(Cl)c(F)cc2/C1=N/Nc1ccc(Cl)cc1` [Compound S43], the “% inhib. @ 100 µM” value was 28±3.7%. With `COc1ccc2c(c1)/C(=N/Nc1ccc(C(C)(C)C)cc1)C(=O)N2` [Compound S30], the “% inhib. @ 100 µM” value is reported as 66±4%. `O=C1C(=CNNc2ccccc2)C(=O)c2ccccc21` [Compound S1]: the “% inhib. @ 100 µM” value is 49±2.0%. Consider `COc1ccc2c(c1)/C(=N/Nc1cccc(Cl)c1)C(=O)N2` [Compound S26], for which the “% inhib. @ 100 µM” value is 72±1%.

`O=C1Nc2ccc([N+](=O)[O-])cc2/C1=N/Nc1ccc(Cl)cc1` [Compound S45]: the “% inhib. @ 100 µM” value is recorded as 12±2%.

Take `O=C1Nc2ccccc2/C1=N/Nc1ccccc1Cl` [Compound S53]: the “% inhib. @ 100 µM” value was 44±5%. With `CC(C)c1ccc(N/N=C2\C(=O)Nc3ccccc32)cc1` [Compound S64], the “% inhib. @ 100 µM” value was 64±4%. For the compound `O=C1C(/C=N/Nc2ccc(Cl)c(Cl)c2)=Nc2ccc(Br)cc21` [Compound S20], the “% inhib. @ 100 µM” value was 23±2.3%. Take `COc1cc2c(cc1OC)/C(=N/Nc1ccccc1Cl)C(=O)N2` [Compound S37]: the “% inhib. @ 100 µM” value was 70±3%.

With `O=C1C(/C=N/Nc2ccc(Cl)cc2)=Nc2ccc(Br)cc21` [Compound S19], the “% inhib. @ 100 µM” value is reported as 46±7.0%. Turning to `O=C1Nc2ccccc2/C1=N/Nc1ccc(OC(F)(F)F)cc1` [Compound S62], the “% inhib. @ 100 µM” value is reported as 57±3%. Take `O=C1Nc2ccccc2/C1=N/Nc1cccc(F)c1` [Compound S42]: the “% inhib. @ 100 µM” value was 52±0.9%. `Cc1ccc(NNC=C2C(=O)c3ccccc3C2=O)cc1` [Compound S2]: the “% inhib. @ 100 µM” value is listed as 44±4.0%.

As to `COc1ccc2c(c1)/C(=N/Nc1ccc(C)cc1)C(=O)N2` [Compound S28], the “% inhib. @ 100 µM” value is listed as 29±4%. In the case of `O=c1c(=NNc2ccc(Cl)cc2)c(=O)c2ccccc12` [Compound S7], the “% inhib. @ 100 µM” value is reported as 38±5.3%.

The test is the same for the next values; noted with them: supplement, training set; 100 µM; ± SD; cited from earlier work.
As to `CC(C)c1ccc(N/N=C2\C(=O)Nc3c(Br)cccc32)cc1` [Compound S80], the “% inhib. @ 100 µM” value is reported as 1±9.3%.

Staying with this test, now noted: supplement, training set; cited from earlier work.
On to `CC(C)c1ccc(N/N=C2\C(=O)Nc3ccc(O)cc32)cc1` [Compound S49], for which the IC50 is 21 µM. With `O=C1Nc2cc(O)c(O)cc2/C1=N/Nc1ccc(O)cc1` [Compound S59], the IC50 is 24 µM. Regarding `CC(C)c1ccc(N/N=C2\C(=O)Nc3cc(O)c(O)cc32)cc1` [Compound S58], the IC50 is 1.6 µM. For `COc1cc2c(cc1OC)/C(=N/Nc1ccc(Cl)cc1)C(=O)N2` [Compound S39], the concentration for half-maximal inhibition (IC50) is 33 µM. On to `O=C1C(/C=N/Nc2ccccc2)=Nc2ccc(Br)cc21` [Compound S14], for which the IC50 was 35 µM. With `CC(C)c1ccc(N/N=C/C2=Nc3ccc(Br)cc3C2=O)cc1` [Compound S16], the IC50 is 23 µM. Consider `O=C1Nc2ccc(O)cc2/C1=N/Nc1cccc(Cl)c1` [Compound S48], for which the IC50 is 18 µM.

For the compound `O=C1C(=CNNc2ccc(Cl)cc2)C(=O)c2ccccc21` [Compound S6], the IC50 is 23 µM. Regarding `O=C1Nc2cc(O)c(O)cc2/C1=N/Nc1ccccc1` [Compound S54], the IC50 is 4.3 µM.

`COc1ccc(N/N=C2\C(=O)Nc3ccccc32)cc1` [Compound S21]: the IC50 is 13 µM. As to `COc1ccc2c(c1)/C(=N/Nc1nc(-c3cccc(Br)c3)cs1)C(=O)N2` [Compound S72], the IC50 was 40 µM. With `O=C1Nc2cc(O)c(O)cc2/C1=N/Nc1ccc(Cl)cc1` [Compound S57], the IC50 is 17 µM. For the compound `COc1cc2c(cc1OC)/C(=N/Nc1ccccc1)C(=O)N2` [Compound S25], the IC50 was 63 µM.

For the compound `Cc1ccc(N/N=C/C2=Nc3ccc(Br)cc3C2=O)cc1` [Compound S15], the IC50 is 51 µM. Consider `COc1ccc2c(c1)/C(=N/Nc1ccc(C(C)(C)C)cc1)C(=O)N2` [Compound S30], for which the IC50 is 15 µM.

As to `COc1ccc(N/N=C2\C(=O)Nc3cc(OC)c(OC)cc32)cc1` [Compound S41], the IC50 was 22 µM. In the case of `COc1cccc(-c2csc(N/N=C3\C(=O)Nc4ccc(OC)cc43)n2)c1` [Compound S71], the IC50 is 34 µM. In the case of `COc1ccc2c(c1)/C(=N/Nc1nc(CCl)cs1)C(=O)N2` [Compound S67], the IC50 is 13 µM. In the case of `O=C1C(/C=N/Nc2cccc(Cl)c2)=Nc2ccccc21` [Compound S12], the IC50 is 2.5 µM. For `Cc1ccc(N/N=C/C2=Nc3ccccc3C2=O)cc1` [Compound S9], the IC50 is 3.6 µM. Consider `COc1ccc2c(c1)/C(=N/Nc1nc(-c3cccc(O)c3)cs1)C(=O)N2` [Compound S70], for which the IC50 is 16 µM. For the compound `COc1cc2c(cc1OC)/C(=N/Nc1ccc(C(C)C)cc1)C(=O)N2` [Compound S40], the IC50 was 4.4 µM.

With `O=C1Nc2ccccc2/C1=N/Nc1ccc(O)cc1` [Compound S46], the 50% inhibitory concentration (IC50) is 9.3 µM.

As for `COc1ccc2c(c1)/C(=N/N=C/c1cccc(Cl)c1)C(=O)N2` [Compound S90], the IC50 is 11 µM.

Consider `CC(C)c1ccc(N/N=C/C2=Nc3ccccc3C2=O)cc1` [Compound S10], for which the IC50 is 1.4 µM. For `O=C1Nc2cc(O)c(O)cc2/C1=N/Nc1ccccc1Cl` [Compound S55], the IC50 was 11 µM. Consider `O=C1C(/C=N/Nc2ccccc2Cl)=Nc2ccc(Br)cc21` [Compound S17], for which the IC50 is 7.8 µM.

`COc1ccc2c(c1)/C(=N/N(C)c1ccc(C(C)C)cc1)C(=O)N2C` [Compound S73]: the IC50 was 11 µM. On to `COc1ccc2c(c1)/C(=N/N=C/c1ccc(C(C)C)cc1)C(=O)N2` [Compound S89], for which the IC50 was 6.7 µM. For `O=C1Nc2cc(O)ccc2/C1=N/Nc1ccccc1` [Compound S51], the IC50 was 22 µM. As to `Oc1ccc2[nH]cc(/C=N/Nc3ccc(Cl)cc3)c2c1` [Compound S92], the IC50 is 21 µM. As for `COc1cc2c(cc1OC)/C(=N/Nc1cccc(Cl)c1)C(=O)N2` [Compound S38], the IC50 was 17 µM. For `COc1ccc(N/N=C2\C(=O)Nc3ccc(OC)cc32)cc1` [Compound S33], the IC50 was 3.7 µM.

For `O=C1C(=CNNc2cccc(Cl)c2)C(=O)c2ccccc21` [Compound S5], the IC50 was 18 µM. Turning to `COc1ccc2c(c1)NC(=O)/C2=N\Nc1ccc(C(C)C)cc1` [Compound S36], the IC50 was 7.1 µM. Turning to `O=C1C(/C=N/Nc2cccc(Cl)c2)=Nc2ccc(Br)cc21` [Compound S18], the IC50 is 4.4 µM. Take `O=C1C(/C=N/Nc2ccccc2Cl)=Nc2ccccc21` [Compound S11]: the half-inhibitory concentration (IC50) was 13 µM. In the case of `COc1ccc2c(c1)/C(=N/Nc1cccc3ccccc13)C(=O)N2` [Compound S87], the IC50 is 28 µM. For the compound `O=C1C(=CNNc2ccccc2Cl)C(=O)c2ccccc21` [Compound S4], the half-maximal inhibitory concentration (IC50) was 32 µM. `CC(C)c1ccc(N/N=C2\C(=O)Nc3cc(O)ccc32)cc1` [Compound S52]: the IC50 was 6 µM.

As to `CC(C)c1ccc(NNC=C2C(=O)c3ccccc3C2=O)cc1` [Compound S3], the IC50 was 18 µM.

The test is the same for the next values; noted with them: supplement; 100 µM; value marked (II); cited from earlier work.
Turning to `O=C1Nc2ccccc2/C1=N/Nc1ccccc1` [Compound S31], the “% inhib. @ 100 µM (II)” value is 61±0.7%.
